Measurements published in PMC5746216, “CYP51 is an essential drug target for the treatment of primary amoebic meningoencephalitis (PAM)” (PLoS Neglected Tropical Diseases, 2017).

Assays:
[1] = biological target: T1, sterol 14-demethylase (NfCYP51) (Naegleria fowleri, UniProt A0A2H4A2U9); assay: co-crystal structure at […] Å; UV-vis type II titration; format: binding
T1 construct: gene NF0102700; 34 N-terminal membrane anchoring residues replaced with MAKKTSSKGKL
T1 sequence (A0A2H4A2U9 12-460): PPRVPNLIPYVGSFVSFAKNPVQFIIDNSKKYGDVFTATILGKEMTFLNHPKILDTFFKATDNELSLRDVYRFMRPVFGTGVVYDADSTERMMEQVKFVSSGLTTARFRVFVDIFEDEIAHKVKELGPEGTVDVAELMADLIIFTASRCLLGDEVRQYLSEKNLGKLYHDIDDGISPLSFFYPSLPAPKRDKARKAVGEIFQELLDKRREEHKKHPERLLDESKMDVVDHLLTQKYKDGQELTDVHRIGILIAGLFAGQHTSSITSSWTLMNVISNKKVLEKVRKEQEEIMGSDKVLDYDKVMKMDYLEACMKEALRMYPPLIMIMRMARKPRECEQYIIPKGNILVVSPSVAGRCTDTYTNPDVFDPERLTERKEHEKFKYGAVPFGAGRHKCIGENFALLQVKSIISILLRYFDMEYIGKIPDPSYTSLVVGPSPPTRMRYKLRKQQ

[2] = biological target: T1, sterol 14-demethylase (NfCYP51); assay: UV-vis spectral binding titration (type I difference spectrum)

Row | SMILES | co-crystal structure at 2.70 Å; UV-vis type II titration [1] | Kd [2] [nM]
1 | OC(Cn1cncn1)(Cn1cncn1)c1ccc(F)cc1F [Fluconazole] | fluconazole, binds NfCYP51 with affinity roughly an order of magnitude exceeding that of natural substrate, 31-norlanosterol | –
2 | CC(C)=CCC[C@@H](C)[C@H]1CC[C@@]2(C)C3=C(CC[C@]12C)[C@@]1(C)CC[C@H](O)[C@@H](C)[C@@H]1CC3 [compound 14, 31-Norlanosterol] | – | 124 ± 25
